Counter-ions that a name gives are not always drawn.
Key:
Format in all cases: physicochemical
[1] = Molar extinction coefficient in methanol and PBS; parameters: ε·10^-5: unit not given here
Method: For all indodicarbocyanine dyes (I) (A1) - (A30) and (B1) - (B7) of the invention, there are determined the molar extinction coefficients in methanol and in aqueous phosphate buffered saline (PBS) (10 mM potassium phosphate buffer, sodium chloride concentration is 0.9%, pH 7.4). In methanol, indodicarbocyanine (A1, A8, A10-A12, A17, A23) has the upper-range of molar extinction coefficient (ε >[…]). In aqueous phosphate buffered saline (PBS), dyes (A10, A23, A30) have the maximal ε-value (Fig. 2).

[2] = Relative efficiency of fluorescence / absolute sensitivity of label, normalized to dye A30 in PBS; conditions: for Sensitivity of record 655/ 690: excitation 655 nm, record 690 nm; for Sensitivity of record max/ max: excitation and record in absorption and fluorescence maxima, ε*Φ normalized to A30 in PBS; for Sensitivity of record 635/ 670: excitation 635 nm, record 670 nm
Source text: The data obtained were as follows: • on excitation and record in absorption and fluorescence maxima, the relative efficiency of fluorescence exceeds 0.80 for dyes (A10), (A22), (A23), (A25), and (A30) in methanol and for dyes (A22), (A25), and (A30) in PBS (Table 1, Fig. 4), whereas for dyes of formula (I) (R1 = -CH3, R2= R6= -SO3^-; R3= -(CH2)5COOH, R4= -C2H5; R5= -H) the values are 0.69 in methanol and 0.67 in PBS; • on excitation at wavelength 655 nm and record at 690 nm, the relative efficiency of fluorescence exceeds 0.25 for dyes (A25) and (A30) in methanol and is higher than 0.18 for dyes (A24) and (A30) in PBS (Table 1, Fig. 5), whereas for dyes of formula (I) (R1 = -CH3, R2 = R6= -SO3^-; R3= -(CH2)5COOH, R4= -C2H5; R5= -H) the values are 0.18 in methanol and 0.11 in PBS; • on excitation at wavelength 635 nm and record at 670 nm, the relative efficiency of fluorescence exceeds 0.50 for dyes (A1), (A11), (A23) in methanol and is higher than 0.45 for dyes (A22), (A25), and (A30) in PBS (Table 1, Fig. 6), whereas for dyes of formula (I) (R1= -CH3, R2= R6= -SO3^-; R3= -(CH2)5COOH, R4= -C2H5; R5= -H) the values are 0.44 in methanol and 0.38 in PBS.
Term sensitivity of fluorescent analysis is defined by the absolute sensitivity of label that may be represented as the product of molar extinction coefficient by quantum efficiency of fluorescence (ε*Φ). Thus, there are determined the absolute sensitivity of indodicarbocyanines (A1-A30, B1-B7) in appropriate absorption and fluorescence maxima in methanol and in aqueous phosphate buffered saline. The values are normalized to the maximal value obtained for dye (A30) in PBS (Table 1). In methanol, dyes (A10, A22, A23, A25, A30) have the upper-range of absolute sensitivity, but in PBS, dyes (A10, A22, A25, A29, A30) have the maximal values of sensitivity (Fig. 4).
To determine the most appropriate dyes for instrument setting, there are measured the relative efficiency of fluorescence of dyes at wavelength of excitation and record of the instrument (655 nm. / 690 nm). The maximal values appear to be specific to dyes (A25) and (A30) in methanol, and to dyes (A19, A22, A25, A29, A30) in PBS (Table 1, Fig. 5).
There are also measured the relative efficiency of fluorescence at wavelength of excitation and record of the instrument (635 nm / 670 nm). The maximal values appear to be specific to dyes (A1, A10, A11, A23) in methanol, and to dyes (A10, A22, A25, A29, A30) in PBS (Table 1, Fig. 6).

[3] = Absorption and fluorescence maxima of the dyes
Source text: An insertion of methyl group at 5- and 7-positions of indolenyne cycle produces a bathochromic shift in the absorption and fluorescent spectra. As to the rest sulfur containing dyes, the spectral characteristics thereof appear to be in the same range (between about λmax 648 nm and λem 669 nm) (Fig. 1),

[4] = Quantum efficiency of fluorescence, measured versus a reference dye
Method: For all indodicarbocyanine dyes (I) (A1) - (A30) and (B1) - (B7) of the invention, there are determined the quantum efficiency of fluorescence in methanol and in aqueous phosphate buffered saline (Table 1, Fig. 3). The measurements are performed versus dyes of formula (I) (R1= -CH3, R2= R6= -SO3^-; R3= -(CH2)5COOH, R4= -C2H5, R5= -H) whose quantum efficiency of fluorescence in PBS is 0.27 (Mader O., K. Reider, H.-J. Egelhaaaf, R, Fischer, R. Brock, Structure Properties of Pentamethine Indocyanine Dyes: Identification of New Dyes for Life Science Applications. Bioconjugate Chem, 2004, vol. 15, pp. 70-78). In methanol, dyes (A10, A22, A25, A29, A30) have the upper-range of quantum efficiency of fluorescence (Φ ∼ 0.3), but in PBS, dyes (A10, A22, A25, A29, A30) have the maximal Φ -value.

[5] = PBS (10 mM potassium phosphate buffer, 0.9% sodium chloride, pH 7.4)

| SMILES | Sensitivity of record 635/ 670 ([2]; PBS) | Sensitivity of record 655/ 690 ([2]; PBS) | Sensitivity of record max/ max ([2]; PBS) | Φ (quantum efficiency of fluorescence) ([4]; MeOH) | Φ (quantum efficiency of fluorescence) ([4]; PBS) | also measured |
| --- | --- | --- | --- | --- | --- | --- |
| CCN1C(=CC=CC=CC2=[N+](CCCCS(=O)(=O)[O-])c3ccccc3C2(C)CCCCC(=O)O)C(C)(C)c2ccccc21 (stereo not shown) [A1, 3-(4-carboxybutyl)-N-(4-sulfobutyl)-3,3',3'-trimethyl-N'-ethylindodicarbocyanine] | 0.123 | 0.153 | 0.372 | 0.25 | 0.13 | ε·10^-5 ([1]; MeOH): 2.47±0.02; ε·10^-5 [1, 5]: 2.06±0.02; Sensitivity of record 655/ 690 ([2]; MeOH): 0.025; Sensitivity of record max/ max ([2]; MeOH): 0.737; λmax^abs ([3]; MeOH): 644 nm; λmax^em ([3]; MeOH): 662 nm; λmax^abs ([3]; PBS): 643 nm; λmax^em ([3]; PBS): 657 nm |
| CC[N+]1=C(/C=C/C=C/C=C2/N(CCCCS(=O)(=O)[O-])c3ccccc3C2(C)CCCCC(=O)O)C(C)(C)c2cc(C)ccc21 (stereo not shown) [A2, 3-(4-Carboxybutyl)-N-(4-sulfobutyl)-3,3',3',5'-tetramethyl-N'-ethylindodicarbocyanine] | 0.184 | 0.068 | 0.261 | 0.17 | 0.09 | ε·10^-5 ([1]; MeOH): 2.01±0.01; ε·10^-5 [1, 5]: 1.99±0.03; Sensitivity of record 635/ 670 ([2]; MeOH): 0.320; Sensitivity of record 655/ 690 ([2]; MeOH): 0.149; Sensitivity of record max/ max ([2]; MeOH): 0.442; λmax^abs ([3]; MeOH): 649 nm; λmax^em ([3]; MeOH): 667 nm; λmax^abs ([3]; PBS): 647 nm; λmax^em ([3]; PBS): 662 nm |
| CC[N+]1=C(/C=C/C=C/C=C2/N(CCCCS(=O)(=O)[O-])c3ccccc3C2(C)CCCCC(=O)O)C(C)(C)c2cc(C)cc(C)c21 (stereo not shown) [A3, 3-(4-Carboxybutyl)-3,3',3',5',7'-pentamethyl-N-(4-sulfobutyl)-N'-ethylindodicarbocyanine] | 0.132 | 0.069 | 0.199 | 0.12 | 0.08 | ε·10^-5 ([1]; MeOH): 1.93±0.01; ε·10^-5 [1, 5]: 1.84±0.01; Sensitivity of record 635/ 670 ([2]; MeOH): 0.210; Sensitivity of record 655/ 690 ([2]; MeOH): 0.138; Sensitivity of record max/ max ([2]; MeOH): 0.314; λmax^abs ([3]; MeOH): 652 nm; λmax^em ([3]; MeOH): 670 nm; λmax^abs ([3]; PBS): 650 nm; λmax^em ([3]; PBS): 665 nm |
| CC1(C)C(C=CC=CC=C2N(CCCCS(=O)(=O)O)c3ccccc3C2(C)CCCCC(=O)O)=[N+](CCCCS(=O)(=O)[O-])c2ccccc21 (stereo not shown) [A10, N,N'-di(4-sulfobutyl)-3-(4-carboxybutyl)-3,3',3'-trimethylindodicarbocyanine, sodium salt] | maximal |  | maximal | ~0.3 | maximal | Sensitivity of record 635/ 670 ([2]; MeOH): maximal |
| Cc1ccc2c(c1)C(C)(CCCCC(=O)O)C(C=CC=CC=C1N(CCCCS(=O)(=O)[O-])c3ccccc3C1(C)C)=[N+]2CCCCS(=O)(=O)[O-].[Na+] (stereo not shown) [A17, N,N'-di(4-sulfobutyl)-3-(4-carboxybutyl)-3,3',3',5-tetramethylindodicarbocyanine, sodium salt] |  |  |  |  |  | molar extinction coefficient (ε) ([1]; in methanol): > 220000 M⁻¹ cm⁻¹ |
| CCN1C(=CC=CC=CC2=[N+](CC)c3ccc(S(=O)(=O)[O-])cc3C2(C)CCCCC(=O)O)C(C)(C)c2cc(S(=O)(=O)[O-])ccc21.[Na+] (stereo not shown) [A22, 5,5'-disulfo-N,N'-diethyl-3-(4-carboxybutyl)-3,3',3'-trimethylindodicarbocyanine, sodium salt] |  | maximal |  | ~0.3 | maximal |  |
| CC1(C)C(/C=C/C=C/C=C2/N(CCCCS(=O)(=O)O)c3ccccc3C2(C)CCCCC(=O)O)=[N+](CCCCS(=O)(=O)O)c2ccc(S(=O)(=O)[O-])cc21 (stereo not shown) [A23, N,N'-di(4-sulfobutyl)-3-(4-carboxybutyl)-5'-sulfo-3,3',3'-trimethylindodicarbocyanine, disodium salt] |  |  |  |  |  | molar extinction coefficient (ε) ([1]; in aqueous phosphate buffered saline (PBS)): maximal |
| CC[N+]1=C(/C=C/C=C/C=C2/N(CCCCS(=O)(=O)O)c3ccc(S(=O)(=O)[O-])cc3C2(C)CCCCC(=O)O)C(C)(C)c2cc(S(=O)(=O)O)ccc21 (stereo not shown) [A25, 5,5'-disulfo-3-(4-carboxybutyl)-N-(4-sulfobutyl)-3,3',3'-trimethyl-N'-ethylindodicarbocyanine, disodium salt] |  | maximal |  |  |  |  |
| CCN1/C(=C/C=C/C=C/C2=[N+](CCCCS(=O)(=O)O)c3ccc(S(=O)(=O)O)cc3C2(C)C)C(C)(CCCCC(=O)O)c2cc(S(=O)(=O)[O-])ccc21 (stereo not shown) [A29, 5,5'-disulfo-3-(4-carboxybutyl)-N'-(4-sulfobutyl)-3,3';3'-trimethyl-N-ethylindodicarbocyanine, disodium salt] | maximal | maximal | maximal |  | maximal |  |

The next lines start with results.

| Sensitivity of record 635/ 670 ([2]; PBS) | Sensitivity of record 655/ 690 ([2]; PBS) | Sensitivity of record max/ max ([2]; PBS) | Φ (quantum efficiency of fluorescence) ([4]; MeOH) | Φ (quantum efficiency of fluorescence) ([4]; PBS) | SMILES | also measured |
| --- | --- | --- | --- | --- | --- | --- |
|  | maximal |  |  |  | Cc1ccc2c(c1)C(C)(C)C(=CC=CC=CC1=[N+](CCCCS(=O)(=O)[O-])c3ccc(C)cc3C1(C)CCCCC(=O)O)N2CCCCS(=O)(=O)[O-].[Na+] (stereo not shown) [A19, N,N'-di(4-sulfobutyl)-3-(4-carboxybutyl)-3,3',3',5,5'-pentamethylindodicarbocyanine, sodium salt] |  |
|  | higher than 0.18 |  |  |  | CC1(C)C(=CC=CC=CC2=[N+](CCCCS(=O)(=O)[O-])c3ccc(S(=O)(=O)[O-])cc3C2(C)CCCCC(=O)O)N(CCCCS(=O)(=O)[O-])c2ccccc21.[Na+].[Na+] (stereo not shown) [A24, N,N'-di(4-sulfobutyl)-3-(4-carboxybutyl)-5-sulfo-3,3',3'-trimethylindodicarbocyanine, disodium salt] |  |
|  |  |  | 0.19 |  | Cc1ccc2c(c1)C(C)(C)C(=CC=CC=CC1=[N+](CCCCS(=O)(=O)[O-])c3ccc(CCC(=O)O)cc3C1(C)C)N2CCCCS(=O)(=O)[O-].[Na+] [B4, N,N'-disulfobutyl-5-carboxyethyl-3,3,3',3',5'-pentamethylindodicarbocyanine, sodium salt] |  |
|  |  |  | 0.17 |  | CC1(C)C(=CC=CC=CC2=[N+](CCCCS(=O)(=O)[O-])c3ccc(CCC(=O)O)cc3C2(C)C)N(CCCCS(=O)(=O)[O-])c2ccccc21.[Na+] [B5, N,N'-disulfobutyl-5-carboxyethyl-3,3,3',3'-tetramethylindodicarbocyanine, sodium salt] | molar extinction coefficient ([1]; solvent not stated): about 200,000 |

— patent EP2157088A1, “INDICYANINE DYES AND THE DERIVATIVES THEREOF FOR ANALYSING BIOLOGICAL MICROMOLECULES” (UCHREZHDENIE ROSSIISKOI AKADEMII NAUK INSTITUT …, priority 2007, dated 2008)
